Data published in article PMC5529566, “The cryo-EM structure of gastric H^+,K^+-ATPase with bound BYK99, a high-affinity member of K^+-competitive, imidazo[1,2-a]pyridine inhibitors” (Scientific Reports, 2017).

What was measured:
[1] = biological target: H^+,K^+-ATPase D137N (Sus scrofa, UniProt P19156, D138N); test: ATPase assay, D137N mutant
[2] = biological target: H^+,K^+-ATPase D136L (Sus scrofa, UniProt P19156, D137L); test: ATPase assay, D136L mutant
[3] = biological target: T1, H^+,K^+-ATPase D137E (Sus scrofa, UniProt P19156, D138E); test: ATPase assay, D137E mutant; type: biochemical, pig
T1 construct: made in house; host or cells: HEK293S GnT1- cells (BacMam baculovirus transduction), membrane fraction

[4] = biological target: H^+,K^+-ATPase Y799F (Sus scrofa, UniProt P19156, Y800F); test: ATPase assay, Y799F mutant
[5] = biological target: H^+,K^+-ATPase D137A (Sus scrofa, UniProt P19156, D138A); test: ATPase assay, D137A mutant
[6] = biological target: H^+,K^+-ATPase N138D (Sus scrofa, UniProt P19156, N139D); test: ATPase assay, N138D mutant
[7] = biological target: H^+,K^+-ATPase Y140L (Sus scrofa, UniProt P19156, Y141L); test: ATPase assay, Y140L mutant
[8] = biological target: H^+,K^+-ATPase N138F (Sus scrofa, UniProt P19156, N139F); test: ATPase assay, N138F mutant
[9] = biological target: H^+,K^+-ATPase L139I (Sus scrofa, UniProt P19156, L140I); test: ATPase assay, L139I mutant
[10] = biological target: H^+,K^+-ATPase L139F (Sus scrofa, UniProt P19156, L140F); test: ATPase assay, L139F mutant
[11] = biological target: H^+,K^+-ATPase A335G (Sus scrofa, UniProt P19156, A336G); test: ATPase assay, A335G mutant
[12] = biological target: H^+,K^+-ATPase N138I (Sus scrofa, UniProt P19156, N139I); test: ATPase assay, N138I mutant
[13] = biological target: H^+,K^+-ATPase D136F (Sus scrofa, UniProt P19156, D137F); test: ATPase assay, D136F mutant
[14] = biological target: H^+,K^+-ATPase L141I (Sus scrofa, UniProt P19156, L142I); test: ATPase assay, L141I mutant
[15] = biological target: H^+,K^+-ATPase D136I (Sus scrofa, UniProt P19156, D137I); test: ATPase assay, D136I mutant
[16] = biological target: H^+,K^+-ATPase D137I (Sus scrofa, UniProt P19156, D138I); test: ATPase assay, D137I mutant
[17] = biological target: H^+,K^+-ATPase Y140I (Sus scrofa, UniProt P19156, Y141I); test: ATPase assay, Y140I mutant
[18] = biological target: H^+,K^+-ATPase (Sus scrofa, UniProt P19156); test: Dose-dependent inhibition of H^+,K^+-ATPase activity in the presence of 10 mM KCl
[19] = biological target: H^+,K^+-ATPase L139A (Sus scrofa, UniProt P19156, L140A); test: ATPase assay, L139A mutant
[20] = biological target: T2, H^+,K^+-ATPase WT (Sus scrofa, UniProt P19156); test: K^+-competitive inhibition of H^+,K^+-ATPase activity, 96-well ATPase assay, wild-type; type: biochemical, pig; conditions: WT
T2 construct: made in house; host or cells: HEK293S GnT1- cells (BacMam baculovirus transduction); permeabilised membrane fractions

[21] = biological target: H^+,K^+-ATPase D137N/N138D (Sus scrofa, UniProt P19156, D138N/N139D); test: ATPase assay, D137N/N138D mutant; conditions: D137N/N138D
[22] = biological target: H^+,K^+-ATPase A335C/C813A (Sus scrofa, UniProt P19156, A336C/C814A); test: ATPase assay, A335C/C813A mutant
[23] = biological target: H^+,K^+-ATPase N138A (Sus scrofa, UniProt P19156, N139A); test: ATPase assay, N138A mutant
[24] = biological target: H^+,K^+-ATPase N138L (Sus scrofa, UniProt P19156, N139L); test: ATPase assay, N138L mutant
[25] = biological target: H^+,K^+-ATPase D137L (Sus scrofa, UniProt P19156, D138L); test: ATPase assay, D137L mutant
[26] = biological target: H^+,K^+-ATPase Y140A (Sus scrofa, UniProt P19156, Y141A); test: ATPase assay, Y140A mutant
[27] = biological target: H^+,K^+-ATPase Y140F (Sus scrofa, UniProt P19156, Y141F); test: ATPase assay, Y140F mutant
[28] = biological target: H^+,K^+-ATPase L809F (Sus scrofa, UniProt P19156, L810F); test: ATPase assay, L809F mutant
[29] = biological target: H^+,K^+-ATPase D136A (Sus scrofa, UniProt P19156, D137A); test: ATPase assay, D136A mutant
[30] = biological target: H^+,K^+-ATPase D137F (Sus scrofa, UniProt P19156, D138F); test: ATPase assay, D137F mutant
[31] = biological target: H^+,K^+-ATPase Y799A (Sus scrofa, UniProt P19156, Y800A); test: ATPase assay, Y799A mutant

Chain of H^+,K^+-ATPase N138I (P19156 whole entry N139I): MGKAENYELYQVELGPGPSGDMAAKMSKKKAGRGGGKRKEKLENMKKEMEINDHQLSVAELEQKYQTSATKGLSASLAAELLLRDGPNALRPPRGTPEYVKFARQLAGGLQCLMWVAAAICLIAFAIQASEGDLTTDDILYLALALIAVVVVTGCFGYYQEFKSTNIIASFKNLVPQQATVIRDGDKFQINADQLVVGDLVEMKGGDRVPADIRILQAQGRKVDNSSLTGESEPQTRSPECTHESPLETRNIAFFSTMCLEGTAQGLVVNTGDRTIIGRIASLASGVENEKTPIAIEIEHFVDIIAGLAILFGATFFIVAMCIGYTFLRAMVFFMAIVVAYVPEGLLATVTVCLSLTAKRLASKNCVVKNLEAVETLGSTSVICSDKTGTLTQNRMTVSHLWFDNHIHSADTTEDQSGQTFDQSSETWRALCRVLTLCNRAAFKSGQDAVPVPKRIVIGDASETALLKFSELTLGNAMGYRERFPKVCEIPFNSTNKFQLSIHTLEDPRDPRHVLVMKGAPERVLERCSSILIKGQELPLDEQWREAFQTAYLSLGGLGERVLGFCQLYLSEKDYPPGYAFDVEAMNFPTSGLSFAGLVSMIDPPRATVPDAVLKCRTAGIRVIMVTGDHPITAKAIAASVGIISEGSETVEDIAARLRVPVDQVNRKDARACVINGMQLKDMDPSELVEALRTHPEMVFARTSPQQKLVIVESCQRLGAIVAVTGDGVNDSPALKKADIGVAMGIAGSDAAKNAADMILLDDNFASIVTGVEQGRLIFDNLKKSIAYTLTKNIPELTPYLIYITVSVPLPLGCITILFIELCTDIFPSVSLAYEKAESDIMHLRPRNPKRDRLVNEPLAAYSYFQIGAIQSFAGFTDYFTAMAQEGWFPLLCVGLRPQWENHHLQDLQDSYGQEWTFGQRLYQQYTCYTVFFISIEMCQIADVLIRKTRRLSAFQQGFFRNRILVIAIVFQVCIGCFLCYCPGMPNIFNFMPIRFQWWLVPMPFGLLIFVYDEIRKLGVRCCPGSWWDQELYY
Chain of H^+,K^+-ATPase N138I (P18434 whole entry partner): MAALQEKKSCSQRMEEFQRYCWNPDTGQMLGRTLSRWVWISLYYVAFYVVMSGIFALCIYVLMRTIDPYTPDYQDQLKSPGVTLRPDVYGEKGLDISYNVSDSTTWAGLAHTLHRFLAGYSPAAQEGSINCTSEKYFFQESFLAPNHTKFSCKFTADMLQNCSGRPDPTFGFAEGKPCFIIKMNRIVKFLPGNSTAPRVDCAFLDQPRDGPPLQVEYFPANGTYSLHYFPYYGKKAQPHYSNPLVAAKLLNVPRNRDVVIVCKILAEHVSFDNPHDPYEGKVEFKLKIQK
Chain of H^+,K^+-ATPase D137N (P19156 whole entry D138N): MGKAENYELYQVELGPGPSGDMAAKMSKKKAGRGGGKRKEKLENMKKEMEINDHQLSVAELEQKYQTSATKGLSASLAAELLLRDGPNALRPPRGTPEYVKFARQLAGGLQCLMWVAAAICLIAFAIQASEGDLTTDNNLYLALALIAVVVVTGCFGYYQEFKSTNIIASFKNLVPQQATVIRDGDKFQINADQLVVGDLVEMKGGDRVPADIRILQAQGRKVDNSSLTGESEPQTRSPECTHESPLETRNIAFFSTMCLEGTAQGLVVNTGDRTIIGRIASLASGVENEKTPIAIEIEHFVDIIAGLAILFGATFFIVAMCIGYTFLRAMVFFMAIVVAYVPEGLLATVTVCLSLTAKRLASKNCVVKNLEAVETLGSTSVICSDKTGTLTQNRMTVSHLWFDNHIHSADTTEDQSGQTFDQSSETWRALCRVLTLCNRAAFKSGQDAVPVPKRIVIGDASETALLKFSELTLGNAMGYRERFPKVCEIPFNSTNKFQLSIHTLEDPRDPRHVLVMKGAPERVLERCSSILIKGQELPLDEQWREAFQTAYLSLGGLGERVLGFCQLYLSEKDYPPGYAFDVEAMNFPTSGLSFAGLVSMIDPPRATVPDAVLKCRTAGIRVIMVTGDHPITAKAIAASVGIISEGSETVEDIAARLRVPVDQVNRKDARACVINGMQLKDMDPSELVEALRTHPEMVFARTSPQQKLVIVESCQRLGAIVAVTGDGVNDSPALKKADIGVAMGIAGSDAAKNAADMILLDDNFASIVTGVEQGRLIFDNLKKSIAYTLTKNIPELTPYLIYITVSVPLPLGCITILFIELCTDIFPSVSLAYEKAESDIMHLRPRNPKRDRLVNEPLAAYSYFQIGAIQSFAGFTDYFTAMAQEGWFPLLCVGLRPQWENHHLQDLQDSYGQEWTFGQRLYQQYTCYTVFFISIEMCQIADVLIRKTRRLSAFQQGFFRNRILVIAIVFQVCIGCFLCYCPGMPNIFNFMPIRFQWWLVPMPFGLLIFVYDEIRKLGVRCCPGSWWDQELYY
Chain of H^+,K^+-ATPase D137N (P18434 whole entry partner): as the sequence (P18434 whole entry partner) above
Chain of H^+,K^+-ATPase D137I (P19156 whole entry D138I): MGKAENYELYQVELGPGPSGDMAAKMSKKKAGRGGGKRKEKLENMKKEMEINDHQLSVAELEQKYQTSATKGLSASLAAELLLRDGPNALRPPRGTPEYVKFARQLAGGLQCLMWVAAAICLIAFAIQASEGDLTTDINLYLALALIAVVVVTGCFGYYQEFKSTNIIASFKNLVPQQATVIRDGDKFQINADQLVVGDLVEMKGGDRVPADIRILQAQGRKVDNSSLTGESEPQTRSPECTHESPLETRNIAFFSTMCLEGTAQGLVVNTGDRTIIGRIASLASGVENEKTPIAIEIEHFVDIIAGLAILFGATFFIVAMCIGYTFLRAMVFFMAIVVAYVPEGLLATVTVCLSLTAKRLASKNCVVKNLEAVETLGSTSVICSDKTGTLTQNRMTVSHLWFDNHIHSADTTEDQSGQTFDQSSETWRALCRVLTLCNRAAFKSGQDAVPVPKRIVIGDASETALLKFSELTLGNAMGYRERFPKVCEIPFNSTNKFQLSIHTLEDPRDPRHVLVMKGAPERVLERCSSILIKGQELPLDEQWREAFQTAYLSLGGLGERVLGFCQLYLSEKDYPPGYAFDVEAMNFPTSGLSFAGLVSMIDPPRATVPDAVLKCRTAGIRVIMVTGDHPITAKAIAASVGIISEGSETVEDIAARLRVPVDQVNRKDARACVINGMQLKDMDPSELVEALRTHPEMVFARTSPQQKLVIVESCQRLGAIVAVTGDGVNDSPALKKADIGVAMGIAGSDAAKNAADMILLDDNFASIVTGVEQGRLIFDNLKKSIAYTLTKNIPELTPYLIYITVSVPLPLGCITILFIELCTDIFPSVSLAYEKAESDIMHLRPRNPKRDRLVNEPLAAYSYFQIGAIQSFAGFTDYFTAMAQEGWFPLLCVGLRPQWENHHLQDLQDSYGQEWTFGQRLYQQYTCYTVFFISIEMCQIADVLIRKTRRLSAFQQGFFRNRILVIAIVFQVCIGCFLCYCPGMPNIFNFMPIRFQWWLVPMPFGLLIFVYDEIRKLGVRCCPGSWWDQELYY
Chain of H^+,K^+-ATPase D137I (P18434 whole entry partner): as the sequence (P18434 whole entry partner) above
T1 sequence (P19156 whole entry D138E): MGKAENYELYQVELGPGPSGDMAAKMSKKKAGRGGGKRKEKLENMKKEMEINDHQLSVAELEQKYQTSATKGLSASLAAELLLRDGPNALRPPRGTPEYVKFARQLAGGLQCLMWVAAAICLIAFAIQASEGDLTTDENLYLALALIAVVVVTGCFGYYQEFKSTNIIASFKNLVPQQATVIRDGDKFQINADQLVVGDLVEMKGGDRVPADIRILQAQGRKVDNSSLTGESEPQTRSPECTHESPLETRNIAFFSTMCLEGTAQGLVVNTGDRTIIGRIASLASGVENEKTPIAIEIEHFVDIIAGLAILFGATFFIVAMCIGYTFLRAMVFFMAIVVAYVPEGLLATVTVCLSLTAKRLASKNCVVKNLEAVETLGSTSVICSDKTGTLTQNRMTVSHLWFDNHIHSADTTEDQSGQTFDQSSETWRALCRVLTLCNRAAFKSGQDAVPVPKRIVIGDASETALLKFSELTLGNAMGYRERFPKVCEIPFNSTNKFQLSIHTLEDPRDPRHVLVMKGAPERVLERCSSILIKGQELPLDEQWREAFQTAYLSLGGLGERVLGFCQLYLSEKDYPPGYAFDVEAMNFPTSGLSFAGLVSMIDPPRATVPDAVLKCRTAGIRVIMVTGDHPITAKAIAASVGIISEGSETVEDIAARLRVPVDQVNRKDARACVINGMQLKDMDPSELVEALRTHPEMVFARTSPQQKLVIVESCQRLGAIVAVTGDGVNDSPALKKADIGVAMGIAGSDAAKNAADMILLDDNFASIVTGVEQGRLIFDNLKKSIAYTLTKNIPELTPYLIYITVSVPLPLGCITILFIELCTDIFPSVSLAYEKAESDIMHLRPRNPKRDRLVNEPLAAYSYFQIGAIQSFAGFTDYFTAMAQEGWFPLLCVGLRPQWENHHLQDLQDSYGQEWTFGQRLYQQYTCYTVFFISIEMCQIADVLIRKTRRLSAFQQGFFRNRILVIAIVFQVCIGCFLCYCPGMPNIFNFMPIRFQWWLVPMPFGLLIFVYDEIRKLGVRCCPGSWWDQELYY
T1 sequence (P18434 whole entry partner): as the sequence (P18434 whole entry partner) above

Question: What does the source list for `Cc1cn2cccc(OCc3ccccc3)c2n1` [SCH-CN^−]?
Answer: Ki [1]: 120 ± 30 µM; -fold increase in K i compared with wild-type ([1]; D137N): 38 fold; Ki [2]: 3.3 ± 0.2 µM; -fold increase in K i compared with wild-type ([2]; D136L): 1.0 fold; -fold increase in K i compared with wild-type [3]: 1.4 fold; Ki ([3]; high H^+-ATPase activity, K i' determined by K m/V max plot): 4.4 ± 0.4 µM; Ki [4]: 18 ± 2 µM; -fold increase in K i compared with wild-type ([4]; Y799F): 5.6 fold; Ki [5]: 28 ± 2 µM; -fold increase in K i compared with wild-type ([5]; D137A): 8.8 fold; Ki [6]: 2.6 ± 0.2 µM; -fold increase in K i compared with wild-type ([6]; N138D): 0.8 fold; Ki [7]: 2.7 ± 0.2 µM; -fold increase in K i compared with wild-type ([7]; Y140L): 0.8 fold; Ki [8]: 52 ± 9 µM; -fold increase in K i compared with wild-type ([8]; N138F): 16 fold; Ki [9]: 1.1 ± 0.1 µM; -fold increase in K i compared with wild-type ([9]; L139I): 0.3 fold; Ki [10]: 6.6 ± 0.5 µM; -fold increase in K i compared with wild-type ([10]; L139F): 2.1 fold; Ki [11]: 1 ± 0.1 µM; -fold increase in K i compared with wild-type ([11]; A335G): 0.3 fold; Ki [12]: 3.7 ± 0.7 µM; -fold increase in K i compared with wild-type ([12]; N138I): 1.2 fold; Ki [13]: 2.9 ± 0.1 µM; -fold increase in K i compared with wild-type ([13]; D136F): 0.9 fold; Ki [14]: 2.4 ± 0.2 µM; -fold increase in K i compared with wild-type ([14]; L141I): 0.8 fold; Ki [15]: 4.1 ± 0.3 µM; -fold increase in K i compared with wild-type ([15]; D136I): 1.3 fold; Ki [16]: 39 ± 7 µM; -fold increase in K i compared with wild-type ([16]; D137I): 12 fold; Ki [17]: 2.1 ± 0.2 µM; -fold increase in K i compared with wild-type ([17]; Y140I): 0.7 fold; IC50 [18]: 110 µM; Ki [19]: 3.3 ± 0.3 µM; -fold increase in K i compared with wild-type ([19]; L139A): 1.0 fold; -fold increase in K i compared with wild-type [20]: 1.0 fold; Ki ([20]; global fitting, mean ± SEM): 3.2 ± 0.3 µM; -fold increase in K i compared with wild-type [21]: 7.2 fold; Ki ([21]; global fitting): 23 ± 20 µM; Ki [22]: 71 ± 10 µM; -fold increase in K i compared with wild-type ([22]; A335C/C813A): 22 fold; Ki [23]: 4.2 ± 0.5 µM; -fold increase in K i compared with wild-type ([23]; N138A): 1.3 fold; Ki [24]: 14 ± 2 µM; -fold increase in K i compared with wild-type ([24]; N138L): 4.4 fold; Ki [25]: 32 ± 6 µM; -fold increase in K i compared with wild-type ([25]; D137L): 10 fold; Ki [26]: 7.3 ± 1 µM; -fold increase in K i compared with wild-type ([26]; Y140A): 2.3 fold; Ki [27]: 3.7 ± 0.2 µM; -fold increase in K i compared with wild-type ([27]; Y140F): 1.2 fold; Ki [28]: 98 ± 12 µM; -fold increase in K i compared with wild-type ([28]; L809F): 31 fold; Ki [29]: 5.1 ± 0.4 µM; -fold increase in K i compared with wild-type ([29]; D136A): 1.6 fold; Ki [30]: 47 ± 6 µM; -fold increase in K i compared with wild-type ([30]; D137F): 15 fold; Ki [31]: 81 ± 15 µM; -fold increase in K i compared with wild-type ([31]; Y799A): 25 fold
